Data reported in paper PMC11397358, “Cytotoxic Activity of Novel GnRH Analogs Conjugated with Mitoxantrone in Ovarian Cancer Cells” (Molecules, 2024).
Read-outs that look alike come from different tables or passages of the source.

What was measured:
SKOV-3 cells [1] = assay: Cell proliferation (MTT) assay; format: cell-based, human; settings: for IC50: Homo sapiens, 0.1 nM–10 µM, medium with 2% BCS, mean ± spread, Con-3 and mitoxantrone n = 3 experiments, Con-7 n = five
Description: The antiproliferative effects of GnRH-mitoxantrone conjugates, Con-3, and Con-7, were evaluated using the SKOV-3 cells. The Con-3 and Con-7 conjugates decreased the proliferation rate of SKOV-3 cells in a dose-dependent manner on days 2, 3, and 4 (Figure 3A–C).
Figure 3 Antiproliferative activity of the GnRH analogs. Decrease in the proliferation rate of the SKOV3 cells after their treatment with increasing concentrations of Con-3, Con-7, Con-P1 or Con-P2 for 2 days (A), 3 days (B) and 4 days (C) at 37 °C. At the end of the incubation, the cells were further incubated with 0.5 mg/mL MTT for 4 h at room temperature and the formed purple formazan crystals were quantified by measuring absorbance at 594 nm. The means ± S.E (triplicate determination) are shown from a representative experiment performed 3 times with similar results. The proliferation rates of cells treated with 1 μΜ of GnRH analogs were used to plot the graph D which depicts the decrease in cell growth over the incubation time (D). Statistical analysis was performed using one-way ANOVA.
At the end of the incubation, the cells were further incubated with 0.5 mg/mL MTT for 4 h at room temperature and the formed purple formazan crystals were quantified by measuring absorbance at 594 nm. The means ± S.E (triplicate determination) are shown from a representative experiment performed 3 times with similar results. […] Statistical analysis was performed using one-way ANOVA.
SKOV-3 cells (kindly provided by Prof. Dimitrios Mavroudis, University of Crete) were seeded into 96-well plates at a density of 6000 cells/well, in triplicates, and incubated overnight in Dulbecco’s modified Eagle’s medium/F12 (DMEM/F12) (1:1), containing 3.15 g/L glucose and 10% bovine calf serum (BCS, HyClone), at 37 °C and 5% CO2. At the end of the incubation, the culture medium was replaced with a fresh one containing 3.15 g/L glucose and 2% BCS, with or without increasing concentrations of GnRH analogs or mitoxantrone (0.1 nM–10 µM), and the cells were further incubated at 37 °C and 5% CO2 for 2, 3 and 4 days. Subsequently, (3-(4,5-dimethylthiazol-2-yl)-2,5- diphenyl tetrazolium bromide) (MTT) was added at a final concentration of 0.5 mg/mL, and the mixtures were incubated for 4 h at room temperature in the dark, allowing the viable cells to reduce the MTT to formazan crystals. The supernatants were removed, and the purple formazan crystals were dissolved in isopropanol containing 4% HCl (100 μL/well) by mixing thoroughly for 30 min in the dark, before the quantification of the absorbance at 594 nm using a Dynatech MicroElisa reader (Chantilly, VA, USA). The percentage of the proliferation rate (% proliferation rate) treated with a GnRH analog was determined based on the following equation: % proliferation rate = (absorbance of cells treated with a GnRH analog/absorbance of untreated cells) × 100. The % viability of the untreated cells (control) was defined as 100%. The % viabilities were analyzed by nonlinear regression analysis, using Prism 8.0 (GraphPad Software, Prism 8.0, San Diego, CA, USA).

SKOV-3 cells [2] = assay: TMRE-based detection of mitochondrial membrane potential (ΔΨm); format: cell-based, human; settings: 1 μM, 72 h, fresh compound every 24 h; three independent experiments; p < 0.01 vs untreated
Text: The apoptosis of SKOV3 cells by Con-3, Con-7 and mitoxantrone was further validated in a mitochondrial membrane potential (ΔΨm) assay, which utilizes the cell-permeable, cationic dye, tetramethylrhodamine ethyl ester (TMRE) to detect the ΔΨm. TMRE accumulates in healthy mitochondria with polarized membrane, but not in the mitochondria of apoptotic cells. Mitochondrial permeabilization and the loss of the mitochondrial transmembrane potential are associated with cell apoptosis and a drop in fluorescence of TMRE [40].
Figure 8 TMRE-based detection of mitochondrial membrane potential (ΔΨm) of SKOV-3 cells. The change in ΔΨm was detected using TMRE after treatment of SKOV3 cells with 1μM Con-3, Con-7 or mitoxantrone for 72 h. The TMRE fluorescence intensities are represented as histogram bars for results obtained in three independent experiments. […] The data are expressed as the mean ± SEM.
The reduced mitochondrial membrane potential (ΔΨm) that accompanies apoptosis was detected using the fluorescent dye, tetramethylrhodamine ethyl ester (TMRE) (Ex/Em: 530/580 nm), (Cayman, TMRE Mitochondrial Membrane Potential Assay Kit, Item No. 701310). SKOV-3 cells were grown on 60 mm tissue culture dishes to achieve ca. 60% confluence. Monolayers of these cells were treated for a total of 72 h using RPMI 1640 containing 1 μM each of Con-3, Con-7 or mitoxantrone. At the end of each consecutive 24 h treatment period, the test solutions were removed and replaced with new media containing fresh test compounds. After 72 h TMRE was added to each dish to a final concentration of 5 μM. After a 30 min exposure to TMRE, the media was removed so that the cell monolayers could be dispersed using 0.25% trypsin-EDTA. The resultant cell suspensions were subjected to centrifugation and repeated resuspension in a standard extracellular salt solution (SES). […] The TMRE fluorescence intensities monitored from the individual wells were measured using a Flexstation 3 microplate reader (Molecular Devices, Sunnyvale, CA, USA).

human GnRH-R = target: T1, human GnRH-R (Homo sapiens, UniProt P30968); assay: Calcium-based (fura-2) kinetic assay of GnRH-R agonism; format: cell-based; settings: HEK293 cells transfected with human GnRH-R; fura-2
T1 construct: host or cells: HEK293 (ATCC CRL-1573)
T1 sequence (P30968 1-328): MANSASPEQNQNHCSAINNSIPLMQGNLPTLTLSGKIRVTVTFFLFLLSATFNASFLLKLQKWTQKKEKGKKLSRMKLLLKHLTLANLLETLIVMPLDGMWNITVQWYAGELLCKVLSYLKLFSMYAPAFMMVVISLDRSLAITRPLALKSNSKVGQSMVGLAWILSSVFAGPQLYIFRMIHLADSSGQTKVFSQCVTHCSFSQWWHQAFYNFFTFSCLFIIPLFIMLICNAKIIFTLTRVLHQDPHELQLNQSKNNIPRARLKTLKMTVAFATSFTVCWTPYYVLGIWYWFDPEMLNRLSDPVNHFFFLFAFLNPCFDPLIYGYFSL
Description: For this purpose, fura-2-based kinetic assays to monitor the [Ca^2+] were performed in real-time using suspensions of HEK293 cells transiently transfected with the human GnRH-R (Figure 2A–I).
HEK293 cells transfected with the human GnRH-R served as a platform with which to test for agonist actions of individual test compounds. These cells were loaded with the ratiometric Ca^2+ indicator fura-2 so that the change in intracellular [Ca^2+] in response to agonist stimulation could be monitored in real time in a 96-well format. For these assays, the individual test compounds were administered at the 100 s time point.
Two days post-transfection, the HEK293 cells were harvested via trypsinization to obtain single-cell suspensions that were plated at 80% density on rat tail collagen-coated 96-well Costar 3904 plates for loading with the ratiometric Ca^2+ indicator fura-2. Measurements of the intracellular [Ca^2+] were performed using a Flexstation 3 microplate reader (Molecular Devices, Sunnyvale, CA, USA). Briefly, test solutions containing GnRH-R agonists were administered to individual wells of a 96-well plate using the automated pipetting feature of the Flexstation under computer control. […] Emitted light was detected at 505/15 nm, and the ratio of emission light intensity due to excitation at 335/9 and 375/9 nm was calculated. […]

Compound	percentage of the proliferation rate (SKOV-3 cells [1]; 1 μΜ, two days of treatment, untreated cells = 100%)	TMRE accumulation / fluorescence (mitochondrial membrane potential), in words (SKOV-3 cells [2])	GnRH-R agonist action (Ca2+ elevation), in words (human GnRH-R)	IC50 (SKOV-3 cells [1]; SK-OV-3, 48 h, 2 days at 37 °C, read-out: IC50, proliferation of SKOV-3 cells, day 2)	IC50 (SKOV-3 cells [1]; SK-OV-3, 72 h, 3 days at 37 °C, read-out: IC50, proliferation of SKOV-3 cells, day 3)	IC50 (SKOV-3 cells [1]; SK-OV-3, 96 h, 4 days at 37 °C, read-out: IC50, proliferation of SKOV-3 cells, day 4)
CCNC(=O)[C@@H]1CCCN1C(=O)[C@H](CCCNC(=N)N)NC(=O)[C@H](CC(C)C)NC(=O)[C@@H](CSSCCC(=O)OCCNCCNc1ccc(NCCNCCO)c2c1C(=O)c1c(O)ccc(O)c1C2=O)NC(=O)[C@H](Cc1ccc(O)cc1)NC(=O)[C@H](CO)NC(=O)[C@H](Cc1c[nH]c2ccccc12)NC(=O)[C@H](Cc1c[nH]cn1)NC(=O)[C@@H]1CCC(=O)N1 [Con-3]	64.4%	significantly reduced the accumulation of the TMRE	–	–	–	–
O=C1c2c(O)ccc(O)c2C(=O)c2c(NCCNCCO)ccc(NCCNCCO)c21 [mitoxantrone]	–	significantly reduced the accumulation of the TMRE	without effect	480 ± 210 nM	420 ± 90 nM	280 ± 60 nM
CCNC(=O)[C@@H]1CCCN1C(=O)[C@H](CCCNC(=N)N)NC(=O)[C@H](CC(C)C)NC(=O)[C@@H](CCCCNC(=O)CCCCCNC(=O)CCSSCC(=O)OCCNCCNc1ccc(NCCNCCO)c2c1C(=O)c1c(O)ccc(O)c1C2=O)NC(=O)[C@H](Cc1ccc(O)cc1)NC(=O)[C@H](CO)NC(=O)[C@H](Cc1c[nH]c2ccccc12)NC(=O)[C@H](Cc1c[nH]cn1)NC(=O)[C@@H]1CCC(=O)N1 [Con-7]	–	significantly reduced the accumulation of the TMRE	–	–	–	–
